The text below walks through data of US20220348549A1 (Hoffmann-La Roche Inc., priority 2019, published 2022).

Broadly, the IC50 is the concentration that gives 50% inhibition. Low readings indicate inhibition by little substance, high ones a need for much substance.

The subject of the assay is HBV cccDNA (HBeAg level in HepDES19 cells). The assay is described as follows: Engineered HepDES19 primary screen assay (HBeAg ELISA as surrogate marker for cccDNA). Conditions: Hepatitis B virus, HepDES19, 120 h. The assay is classed as cell-based. From the text: The assay was employed to screen for novel HBV cccDNA inhibitors. HepDES19 is a HBV cccDNA-producing cell line. In this cell line, HBeAg in the cell culture supernatant as surrogate marker, as HBeAg production depends on cccDNA level and activity. HepDES19 is an engineered cell line which contains a 1.1 unit length HBV genome, and pgRNA transcription from the transgene is controlled by Tetracycline (Tet). In the absence of Tet, pgRNA transcription will be induced, but HBV e antigen (HBeAg) could not be produced from this pgRNA due to very short leader sequence before the HBeAg start codon and the start codon is disrupted. Only after cccDNA is formed, the missing leader sequence and start codon mutation would be restored from the 3′-terminal redundancy of pgRNA, and then HBeAg could be synthesized. Therefore, HBeAg could be used as a surrogate marker for cccDNA (Zhou, T. et al., Antiviral Res. (2006), 72(2), 116-124; Guo, H. et al., J. Virol. (2007), 81(22), 12472-12484).
HepDES19 cells were seeded at 2×10^6 cells per T150 flask and cultured with the culture medium (Dulbecco's Modified Eagle Medium: Nutrient Mixture F-12 [DMEM-F12, Gibco Cat. 11320-82], 10% Fetal Bovine Serum [FBS, Clontech Cat. 631101], 0.1 mM Non-Essential Amino Acids Solution [NEAA, Gibco Cat. 11140-050], 50 μg/mL Penicillin-Streptomycin [PS, Invitrogen Cat. 15140-163], 500 μg/mL Geneticin [G418, Invitrogen Cat. 10131-027]) containing 3 μg/mL Tet (Sigma, Cat. 87128) for 5 days. Cells were then seeded at 4×10^6 cells per T150 in the same culture medium as described above in the absence of Tet for 8 days. Cells were then harvested and frozen at density of 2×10^6 cells per mL. For compound testing, the frozen cells were thawed and seeded into 96-well plates at a density of 6×10^4 cells per well. At 24 hrs after seeding, half log serial dilutions of compounds made with Dimethyl sulfoxide (DMSO, Sigma, Cat. D2650) were further diluted with the same culture medium as described above before they were added to the cells to reach desired final compound concentrations and 1% DMSO concentration. Plates were then incubated at 37° C. for another 5 days before measurement of HBeAg level and cell viability. Intracellular HBeAg level were measured with enzyme-linked immunosorbent assay (ELISA) kit (Shanghai Kehua Diagnostic Medical Products Co., Ltd). Cell viability was assessed using Cell Counting Kit-8 (Donjindo, Cat. CK04-20). IC50 values were derived from the dose-response curve using 4 parameter logistic curve fit method.
The compounds of the present invention were tested for their capacity to inhibit extracellular HBeAg level as described herein.
Regarding `Cc1nc(-c2cccc(CO)c2)nc2cc(C(F)(F)F)ccc12` [Example 22, (3-(4-Methyl-7-(trifluoromethyl)quinazolin-2-yl)phenyl)methanol], the IC50 turned out to be 7130 nM.

The compound `Cc1nc(-c2ccc(OCCOC3CC(C(=O)O)C3)cc2)nc2cc(C(F)(F)F)ccc12` (stereo not drawn) [Example 15, 3-(2-(4-(4-Methyl-7-(trifluoromethyl)quinazolin-2-yl)phenoxy)ethoxy) cyclobutanecarboxylic acid] displayed a concentration for half-maximal inhibition (IC50) of 60 nM.

For `O=C(NCCO)c1nc(-c2ccc(Cl)nc2)nc2c(Cl)cccc12` [Example 52, 8-Chloro-2-(6-chloro-3-pyridyl)-N-(2-hydroxyethyl)quinazoline-4-carboxamide], the IC50 amounted to 160 nM.

The compound `NC(=O)c1nc(-c2ccc(Cl)nc2)nc2c(Cl)cccc12` [Example 46, 8-chloro-2-(6-chloro-3-pyridyl)quinazoline-4-carboxamide] yielded an IC50 of 110 nM.

Regarding `Oc1ccc(-c2ncc3cccc(Cl)c3n2)cc1` [Example 5, 4-(8-Chloroquinazolin-2-yl)phenol], the IC50 is 4350 nM.

In turn, `COc1ccc(-c2nc(C(N)=O)c3cccc(Cl)c3n2)cc1` [Example 34, 8-chloro-2-(4-methoxyphenyl)quinazoline-4-carboxamide] yielded an IC50 of 2220 nM.

`COCc1nc(-c2cccc(Br)c2)nc2cc(C(F)(F)F)ccc12` [Example 16, 2-(3-Bromophenyl)-4-(methoxymethyl)-7-(trifluoromethyl)quinazoline] had an IC50 of 2390 nM.

With `O=C(O)C1CC(OCCOc2ccc(-c3nc(C(F)(F)F)c4cccc(Cl)c4n3)cc2)C1` (stereo not drawn) [Example 56, 3-[2-[4-[8-chloro-4-(trifluoromethyl)quinazolin-2-yl]phenoxy]ethoxy]cyclobutanecarboxylic acid], half-maximal inhibition (IC50) required 7860 nM.

For the compound `Clc1cccc2cnc(-c3cccc(Br)c3)nc12` [Example 2, 2-(3-Bromophenyl)-8-chloroquinazoline], the IC50 worked out at 360 nM.

Consider `OCc1nc(-c2cccc(Br)c2)nc2cc(C(F)(F)F)ccc12` [Example 20, (2-(3-Bromophenyl)-7-(trifluoromethyl)quinazolin-4-yl)methanol], for which the IC50 is 3660 nM.

On to `Cc1nc(-c2ccc(OCCO[C@H]3C[C@@H](C(=O)O)C3)cc2)nc2c(Cl)cccc12` [Example 12, cis-3-[2-[4-(8-Chloro-4-methyl-quinazolin-2-yl)phenoxy]ethoxy]cyclobutanecarboxylic acid], for which the IC50 came to 63 nM.

`Cc1nc(-c2ccc(OCCO)cc2)nc2c(Cl)cccc12` [Example 9, 2-[4-(8-Chloro-4-methyl-quinazolin-2-yl)phenoxy]ethanol] registered an IC50 of 1930 nM.

`COc1ccc(-c2ncc3cccc(Cl)c3n2)cc1` [Example 36, 8-Chloro-2-(4-methoxyphenyl)quinazoline] returned an IC50 of 180 nM.

The compound `Cc1nc(-c2ccc(OCc3cccc(C(=O)O)c3)cc2)nc2c(Cl)cccc12` [Example 8, 3-((4-(8-Chloro-4-methylquinazolin-2-yl)phenoxy)methyl)benzoic acid] showed an IC50 of 460 nM.

The compound `O=C(O)[C@H]1C[C@@H](OCCOc2ccc(-c3nc(O)c4cccc(Cl)c4n3)cn2)C1` [Example 54, cis-3-[2-[[5-(8-Chloro-4-hydroxy-quinazolin-2-yl)-2-pyridyl]oxy]ethoxy]cyclobutanecarboxylic acid] registered an IC50 of 3420 nM.

For `O=C(c1nc(-c2ccc(Cl)nc2)nc2c(Cl)cccc12)N1CCOCC1` [Example 53, [8-Chloro-2-(6-chloro-3-pyridyl)quinazolin-4-yl]-morpholino-methanone], inhibition was half-maximal at 83 nM (IC50).

In turn, `O=C(NCCCl)c1nc(-c2ccc(Br)cc2)nc2c(Cl)cccc12` [Example 39, 2-(4-Bromophenyl)-8-chloro-N-(2-chloroethyl)quinazoline-4-carboxamide] yielded an IC50 of 1170 nM.

Compound `COc1nc(-c2ccc(OCCOC3CC(C(=O)O)C3)cc2)nc2c(Cl)cccc12` (stereo not drawn) [Example 55, 3-(2-(4-(8-Chloro-4-methoxyquinazolin-2-yl)phenoxy)ethoxy)cyclobutanecarboxylic acid] registered an IC50 of 26 nM.
